In experiment [1] the target is T1, sec7-domains of cytohesin-2 (ARNO) (Homo sapiens, UniProt Q99418).
T1 construct: ARNO-Sec7 (amino acids 50-255 of ARNO) were expressed in Escherichia coli; inferred from pET15 vector and Ni-NTA purification; made in house; host or cells: Escherichia coli
T1 sequence (Q99418 50-255): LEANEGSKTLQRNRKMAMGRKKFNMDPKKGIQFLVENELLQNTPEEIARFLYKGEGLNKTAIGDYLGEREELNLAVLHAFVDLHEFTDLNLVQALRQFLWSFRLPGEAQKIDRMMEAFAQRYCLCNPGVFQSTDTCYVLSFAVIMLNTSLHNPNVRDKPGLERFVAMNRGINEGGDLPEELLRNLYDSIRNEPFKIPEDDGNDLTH
Briefly: guanine nucleotide exchange assay (GDP/GTP exchange on [Δ17]ARF1, tryptophan fluorescence). Type of experiment: biochemical. Particulars: for pIC50: 250 nM [Δ17]ARF1, 10 nM ARNO-Sec7, 50 µM GTP, PBS pH 7.4, 37°C, read-out: IC50 value measured for the isolated Sec-7 domain of cytohesin-2; for inhibition of the sec7-domain of the isolated cytohesin-2 (relative exchange rate): 5µM amide compared with 5µM control SecinH3 (K), whose rate is set to 1, Fig. 1; for dual activity in cell adhesion and nucleotide exchange assays (summary in words): across nucleotide exchange and cell adhesion assays. On the procedure:
The inhibition of the exchange activity of the sec7-domains of cytohesin-2 (ARNO) of the amides according to formulas (5) to (30) was determined by a guanine nucleotide exchange assay.
For this purpose, the sec7-domains of cytohesin-2 (ARNO-Sec7) and [Δ17]ARF1, a mutant of the ADP-ribosylation factor (ARF) protein, were subcloned into pET15 vectors (Novagen) as described in Hafner, M. et al. Nature 444, 941-944 (2006). N-terminal truncated [Δ17]ARF1 (amino acids 18-181), lacking the first 17 amino acids and ARNO-Sec7 (amino acids 50-255 of ARNO) were expressed in Escherichia coli and purified by Ni-NTA chromatography (Ni-NTA agarose, Qiagen).
The exchange from […] (GDP) to guanidine-triphosphate (GTP) induces a conformation change of the ribosylation factor, as a result of which the fluorescence of a tryptophan radical of the protein is increased. GDP/GTP exchange was measured on [Δ17][…] by tryptophan fluorescence because a large increase in intrinsic fluorescence of ARF occurs upon exchange of GDP for GTP. All measurements were performed in PBS (137 mM NaCl, 2.7 mM KCl, 10.2 mM Na2HPO4, 1.8 mM KH2PO4) pH 7.4, 3 mM MgCl2 at 37°C.
[Δ17]ARF1 (1 µM) in PBS without MgCl2 was preincubated with 80 µM GDP in the presence of 2 mM ethylenediaminetetraacetic acid (EDTA) for 15 minutes. The bound GDP was stabilized by addition of MgCl2 at a final concentration of 3 mM and incubation for 5 minutes. For each exchange reaction 250 nM [Δ17]ARF1 was mixed with 10 nM ARNO-Sec7 (total volume 200 µl) in the absence or presence of inhibitoring amides according to formulas (5) to (30). The reaction was started by injection of 50 µM GTP.
The tryptophan fluorescence was measured at excitation and emission wavelength of 280 nm and 340 nm respectively. All fluorescent measurements were performed with a Varioskan microplate reader (Thermo Scientific), in 96-well plates. For analysis all data were fitted by linear regression.
The pan-active cytohesin inhibitor "SecinH3", a 1-, 2-, 4-substituted triazole according to formula (9) as disclosed in DE 10 2004 055 998 served as the control (K). The relative exchange rate of the control SecinH3 (K) was set to be 1.
The relative exchange rate was determined by comparing the initial linear rise of the fluorescence signal (exchange rate) in the presence of 5µM of the amides according to formulas (5) to (30) with the exchange rate in the presence of 5µM control SecinH3 (K), whereas the latter was set to be 1.
Further, the IC50 value inhibition of the sec7-domain of the isolated cytohesin-2 was determined. The IC50 value was be determined by plotting the initial linear rise of the fluorescence signal against the added concentrations of the amide. The IC50 value corresponds to the concentration of the amide at which the activity of the protein is reduced to half.

For experiment [2], the system named is Drosophila insulin signaling (d4E-BP mRNA levels in Drosophila S2 cells). Kind of experiment: Drosophila insulin signaling assay, d4E-BP mRNA by quantitative RT-PCR. Format: cell-based. The note with it: 5 µg/ml insulin; for d4E-BP transcript levels: 10 µM amide for 18 hours, control SecinH3 (K) set to 1, Fig. 2. The procedure:
In order to evaluate potential interference of the amides according to formulas (5) to (30) with Drosophila insulin signaling, S2 (Schneider 2 insect cell line, Invitrogen) cells were grown under starvation conditions and subsequently treated with insulin. This triggers a strong activation of the insulin signaling cascade resulting in the nuclear exclusion of the forkhead-box transcription factor dFOXO, which in turn down-regulates the expression of the transcriptional repressor d4E-BP (eIF4E-binding protein). […] This was measured by quantitative RT-PCR and compared to the effect of the control SecinH3 (K) in the same assay.
0.5 x 10^6 S2 cells were grown in 24-well dishes in medium (Schneiders Drosophila Medium, PAN Biotech) without FCS (heat-inactivated fetal calf serum) representing starvation condition. Six hours after seeding cells were treated for 18 hours with 10 µM of the respective amide according to formulas (5) to (30) or 10 µM SecinH3 (K) as reference. 22 hours after seeding cells were treated with 5 µg/ml insulin (Sigma). Controls were performed without amide and/or without insulin treatment. The amides were dissolved in dimethyl sulfoxide (DMSO). Final DMSO concentration in the cell culture medium was 0.5 %.
NucleoSpin 8 RNA Kit (Macherey-Nagel) was used for RNA preparation according to manufacturer's instructions. Genomic DNA digestion and first strand cDNA synthesis was carried out with 250 ng total RNA using QuantiTect Reverse Transkription Kit (Qiagen). Quantitative PCR was performed with the iQ5 Real-Time PCR detection system (Bio-Rad) and iQ SYBR Green Super Mix (Bio-Rad). Three reactions were done in parallel for each template. Real Time PCR was analysed using Bio-Rad iQ5 Optical System Software and Microsoft Excel.
The d4E-BP mRNA level after treatment of cells with the amides according to formulas (5) to (30) compared to the control SecinH3 is shown in Fig. 2. The d4E-BP mRNA level after treatment of cells with the control SecinH3 (K) was set to be 1.

In experiment [3] the test system is adhesion of the T cell line Jurkat E6 to an immobilized ICAM-1-Fc-fusion protein. Briefly: cell adhesion assay, Jurkat E6 cells to immobilized ICAM-1-Fc-fusion protein. Format: cell-based, human. The note with it: 25 µM amide, OKT3 or PMA stimulation; 100% adhesion = 25 µM control SecinH3 (K); Fig. 3. The procedure:
The ability of the amides according to formulas (5) to (30) to inhibit adhesion of the T cell line Jurkat E6 to an immobilized ICAM-1(Inter-Cellular Adhesion Molecule 1)-Fc-fusion protein was tested. On the T cell side, this interaction is exclusively mediated by the β-2 integrin LFA-1 that was enabled to bind to immobilized ICAM-1 through stimulation of Jurkat cells with an anti-TCR (T cell receptor) antibody or with the phorbol ester PMA (Phorbol 12-myristate 13-acetate). Cell adhesion to ICAM-Fc was carried out on 96-well dishes and was read out by fluorescence detection of total input versus bound cells which had been labeled with the DNA dye H33342.
Jurkat E6.1 cells were incubated in HBSS (Hank's BSS, PAA), 0.5% DMSO and, where indicated, 25 µM of the respective amide for one hour at 37°C, 5% CO2. After 30 minutes the cells were labeled with the fluorochrome bisbenzimide trihydrochloride H33342 (Sigma-Aldrich) at […] for 30 minutes at 37°C. 2 x 10^5 cells/ well were subsequently dispensed into a 96-well plate at 100µl/well. Prior to use plates were coated with 12µg/ml goat anti-human IgG for 90 minutes at 21°C, blocked with 1% BSA (Bovine serum albumin) in PBS overnight and incubated for 60 minutes with culture supernatants from CV-1 cells expressing an ICAM-1-Fc fusion protein.
Cells were either stimulated with 5 µg/ml purified anti CD3 antibody (OKT3, hybridome of ATCC, mAb OKT3 purified on protein A, according to standard methods from Current Protocols in Immunology, 5th Ed., Coligan et al., Edts, Wiley 2004) or with 50 ng/ml PMA, respectively. Cells were allowed to adhere to the ICAM-1-Fc coated dishes for 15 minutes and unbound cells were washed off with Hank's BSS (PAA). Adherent cells were read out using a fluorescence plate reader (Synergy-HT1, Biotek) at 485 nm in triplicates.
"100% adhesion" corresponds to the mean of OKT3 and PMA stimulated samples treated with 25 µM control control Secin H3 (K) as reference.

Consider seven compounds from patent EP2286808A1, “Cytohesin inhibitors” (Rheinische Friedrich-Wilhelms Universität, priority 2009, dated 2011).

pIC50: −log10 of the molar value.

Usually pIC50 stands for −log10 of the IC50, conventionally taken in molar units.

Consider `COc1nc(-c2ccc3c(c2)OCO3)n(-c2ccc(NC(=O)CSc3ccccc3)cc2)n1` [SecinH3, reference compound], for which the pIC50 in experiment [1] was 4.94.
Consider `CC(C)(C)c1ccc(C(=O)Nc2ccc(NC(=O)/C=C/c3ccco3)cc2)cc1` [formula (5)], for which, in experiment [1], the “dose-response behaviour of inhibition in nucleotide exchange assay” value is recorded as “displayed a dose-response behaviour”, the “potency in nucleotide exchange assay (summary in words)” value (from here on “potency in nucleotide exchange assay”) is recorded as “potent inhibitors”, the pIC50 is 5.51 and the “inhibition of the sec7-domain of the isolated cytohesin-2 (relative exchange rate)” value (shortened to “inhibition … (relative exchange rate)”) was “better than that of the control SecinH3 (K)”. Moreover, the d4E-BP transcript levels result in experiment [2] is “increased”. The “increase in dFOXO-dependent d4E-BP transcript levels compared to the reference (K)” value in experiment [2] (10 µM amide) is reported as ~20 fold. Besides, the “inhibition of the adhesion of the Jurkat E6.1 cells to ICAM-1” value (shortened to “inhibition of the adhesion … to ICAM-1”) in experiment [3] is given as “better than that of the control (K)”.
In the case of `CC(C)(C)c1ccc(C(=O)Nc2ccc(NC(=S)NC(=O)c3cccs3)cc2)cc1` [formula (6)], in experiment [1], the “potency in nucleotide exchange assay” value is “potent inhibitors”, the negative logarithm of the IC50 (pIC50) is 5.10 and the “inhibition … (relative exchange rate)” value was “better than that of the control SecinH3 (K)”. For the same compound, the d4E-BP transcript levels result in experiment [2] was “increased”. In addition, the “inhibition of the adhesion … to ICAM-1” value in experiment [3] is reported as “better than that of the control (K)”.
For `COc1nc(-c2ccc(C)cc2)n(-c2ccc(NC(=O)/C=C/c3ccccc3)cc2)n1` [formula (7)], the “inhibition … (relative exchange rate)” value in experiment [1] is reported as “better than that of the control SecinH3 (K)”.
Regarding `COc1ccc(-n2c(SCCC(=O)NC(N)=O)nnc2-c2ccc(C(C)(C)C)cc2)cc1Cl` [formula (11)], in experiment [1], the “inhibition … (relative exchange rate)” value is reported as “better than that of the control SecinH3 (K)”; the “dual activity in cell adhesion and nucleotide exchange assays (summary in words)” value is “dual activity”. Besides, in experiment [3], the “inhibition of the adhesion … to ICAM-1” value was “better than that of the control (K)”.
With `C=CCn1c(SCC(=O)Nc2nsc(-c3ccccc3)n2)nc2scc(-c3ccccc3)c2c1=O` [formula (20)], in experiment [1], the “dose-response behaviour of inhibition in nucleotide exchange assay” value is on record as “displayed a dose-response behaviour”; the “potency in nucleotide exchange assay” value was “potent inhibitors”; the pIC50 is 5.68; the “dual activity in cell adhesion and nucleotide exchange assays (summary in words)” value was “dual activity”. Besides, the d4E-BP transcript levels result in experiment [2] is recorded as “increased”.
`CC(C)(C)c1ccc(C(=O)Nc2ccc(NC(=O)c3ccc4c(c3)OCO4)cc2)cc1` [formula (29)]: the “dual activity in cell adhesion and nucleotide exchange assays (summary in words)” value in experiment [1] is recorded as “dual activity”. Moreover, the “inhibition of the adhesion … to ICAM-1” value in experiment [3] is reported as “better than that of the control (K)”.
